Read-outs that look alike come from different tables or passages of the source.
How the values were obtained:
SARS-CoV-2-NLuc = assay: microbe, parasite or virus in culture; format: cell-based, SARS Coronavirus 2
[1] = target: recombinant SARS-CoV-2 Main protease (Mpro) (Severe acute respiratory syndrome coronavirus 2 (2019-nCoV) (SARS-CoV-2), UniProt P0DTD1); assay: Cov Mpro Biochemical IC50 Assay; settings: fluorogenic peptide substrate
[2] = Severe acute respiratory syndrome coronavirus, 48 h, read-out: MPro EC50
[3] = recombinant SARS-CoV-2 Mpro, read-out: MPro IC50

## COc1ccc(Cn2c(=O)n(-c3cncc4ccccc34)c(=O)c3sc(-c4cccc5c4CCC5)cc32)cc1 [Example 167, 6-(2,3-dihydro-1H-inden-4-yl)-3-(isoquinolin-4-yl)-1-(4-methoxybenzyl)thieno[3,2-d]pyrimidine-2,4(1H,3H)-dione]
SARS-CoV-2-NLuc; [2]
  EC50: 4510 nM
[1]; [3]
  IC50: 49700 nM

## O=c1[nH]c2cc(-c3cccc4c3CCC4)sc2c(=O)n1-c1cncc2ccccc12 [Example 168, 6-(2,3-dihydro-1H-inden-4-yl)-3-(isoquinolin-4-yl)thieno[3,2-d]pyrimidine-2,4(1H,3H)-dione]
SARS-CoV-2-NLuc; [2]
  EC50: 810 nM
[1]; [3]
  IC50: 615 nM

## O=c1c2sc(-c3cccc4c3CCC4)cc2n(Cc2ccc(O)cc2)c(=O)n1-c1cncc2ccccc12 [Example 169]
SARS-CoV-2-NLuc; read-out: MPro EC50
  EC50: 744 nM
[1]; [3]
  IC50: 5550 nM

## O=c1c2sc(-c3ncco3)cc2n(CC2CCCC2)c(=O)n1-c1cncc2ccccc12 [Example 170, 1-(cyclopentylmethyl)-3-(isoquinolin-4-yl)-6-(oxazol-2-yl)thieno[3,2-d]pyrimidine-2,4(1H,3H)-dione]
SARS-CoV-2-NLuc; [2]
  EC50: 421 nM
[1]; [3]
  IC50: 192 nM

## O=c1[nH]c2cc(-c3cccc4c3CCC4)ccc2c(=O)n1-c1cncc2ccccc12 [Example 171, 7-(2,3-dihydro-1H-inden-4-yl)-3-(isoquinolin-4-yl)quinazoline-2,4(1H,3H)-dione]
SARS-CoV-2-NLuc; [2]
  EC50: 4200 nM
[1]; [3]
  IC50: 3790 nM

## O=c1[nH]c2cc(-c3c(Cl)ccc4c3OCO4)ccc2c(=O)n1-c1cncc2ccccc12 [Example 172]
SARS-CoV-2-NLuc; [2]
  EC50: 75.8 nM
[1]; [3]
  IC50: 159 nM

## O=C1Nc2ccc(-c3cccc(Cl)c3-c3ccc4c(=O)n(-c5cncc6ccccc56)c(=O)[nH]c4c3)cc2C1(F)F [Example 173]
SARS-CoV-2-NLuc; [2]
  EC50: 650 nM
[1]; [3]
  IC50: 380 nM

## COc1ccc(Cl)c(-c2cc3[nH]c(=O)n(-c4cncc5ccccc45)c(=O)c3s2)c1 [Example 174, 6-(2-chloro-5-methoxyphenyl)-3-(isoquinolin-4-yl)thieno[3,2-d]pyrimidine-2,4(1H,3H)-dione]
SARS-CoV-2-NLuc; [2]
  EC50: 30.7 nM
[1]; [3]
  IC50: 6.99 nM

## COc1ccc2cncc(-n3c(=O)[nH]c4cc(-c5ccccc5Cl)sc4c3=O)c2c1 [Example 175, 6-(2-chlorophenyl)-3-(6-methoxyisoquinolin-4-yl)thieno[3,2-d]pyrimidine-2,4(1H,3H)-dione]
SARS-CoV-2-NLuc; [2]
  EC50: 26.6 nM
[1]; [3]
  IC50: 4.68 nM

## O=c1c2sc(-c3ccccc3Cl)cc2[nH]c(=S)n1-c1cncc2ccccc12 [Example 176]
SARS-CoV-2-NLuc; Severe acute respiratory syndrome coronavirus, 48 h; read-out: MPro EC50
  EC50: 292 nM
[1]; MPro IC50, recombinant SARS-CoV-2 Mpro
  IC50: 330 nM

## Cc1cc(F)ccc1-c1cc2[nH]c(=O)n(-c3cncc4ccccc34)c(=O)c2s1 [Example 177]
SARS-CoV-2-NLuc; [2]
  EC50: 137 nM
[1]; [3]
  IC50: 89.7 nM

## COc1cc(F)ccc1-c1cc2[nH]c(=O)n(-c3cncc4ccccc34)c(=O)c2s1 [Example 178]
SARS-CoV-2-NLuc; [2]
  EC50: 196 nM
[1]; [3]
  IC50: 221 nM

## O=c1[nH]c2cc(-c3c(Cl)cccc3-c3ccc4c(c3)CCO4)ccc2c(=O)n1-c1cncc2ccccc12 [Example 179]
SARS-CoV-2-NLuc; [2]
  EC50: 84.8 nM
[1]; [3]
  IC50: 195 nM

## O=c1[nH]c2cc(-c3cc(C(F)(F)F)ccc3Cl)ccc2c(=O)n1-c1cncc2ccccc12 [Example 180]
SARS-CoV-2-NLuc; [2]
  EC50: 1960 nM
[1]; [3]
  IC50: 3740 nM

## O=c1[nH]c2cc(-c3cc(OC(F)(F)F)ccc3Cl)ccc2c(=O)n1-c1cncc2ccccc12 [Example 181]
SARS-CoV-2-NLuc; [2]
  EC50: 438 nM
[1]; [3]
  IC50: 1220 nM

## N#Cc1ccc(Cl)c(-c2ccc3c(=O)n(-c4cncc5ccccc45)c(=O)[nH]c3c2)c1 [Example 182]
SARS-CoV-2-NLuc; [2]
  EC50: 90 nM
[1]; [3]
  IC50: 45.1 nM

## O=c1[nH]c2cc(-c3ccc(F)cc3Cl)ccc2c(=O)n1-c1cncc2ccccc12 [Example 183]
SARS-CoV-2-NLuc; [2]
  EC50: 354 nM
[1]; [3]
  IC50: 585 nM

## N#Cc1cccc(-c2cccc(Cl)c2-c2ccc3c(=O)n(-c4cncc5ccccc45)c(=O)[nH]c3c2)c1 [Example 184]
SARS-CoV-2-NLuc; [2]
  EC50: 40 nM
[1]; [3]
  IC50: 92.5 nM

## NC(=O)c1cncc(-c2cccc(Cl)c2-c2ccc3c(=O)n(-c4cncc5ccccc45)c(=O)[nH]c3c2)c1 [Example 185]
SARS-CoV-2-NLuc; [2]
  EC50: 489 nM
[1]; [3]
  IC50: < 3.01 nM

## COc1ncc(-c2cccc(Cl)c2-c2ccc3c(=O)n(-c4cncc5ccccc45)c(=O)[nH]c3c2)cc1C#N [Example 186]
SARS-CoV-2-NLuc; [2]
  EC50: 50.7 nM
[1]; [3]
  IC50: 112 nM

## O=c1[nH]c2cc(-c3c(Cl)cccc3-c3cccnc3)ccc2c(=O)n1-c1cncc2ccccc12 [Example 187]
SARS-CoV-2-NLuc; [2]
  EC50: 17.6 nM
[1]; [3]
  IC50: 29.4 nM

## CN(C)C(=O)c1cccc(-c2cccc(Cl)c2-c2ccc3c(=O)n(-c4cncc5ccccc45)c(=O)[nH]c3c2)c1 [Example 188]
SARS-CoV-2-NLuc; [2]
  EC50: 59.4 nM
[1]; [3]
  IC50: 121 nM

## CNC(=O)c1cccc(-c2cccc(Cl)c2-c2ccc3c(=O)n(-c4cncc5ccccc45)c(=O)[nH]c3c2)c1 [Example 189]
SARS-CoV-2-NLuc; [2]
  EC50: 18.2 nM
[1]; [3]
  IC50: 8.58 nM

## CC1(C)Cc2c(-c3cccc(Cl)c3-c3ccc4c(=O)n(-c5cncc6ccccc56)c(=O)[nH]c4c3)cnn2C1 [Example 190]
SARS-CoV-2-NLuc; [2]
  EC50: 16.4 nM
[1]; [3]
  IC50: 19.7 nM

## COc1ccc(Cl)c(-c2ccc3c(=O)n(-c4cncc(C5CC5)c4)c(=O)[nH]c3c2)c1 [Example 191]
SARS-CoV-2-NLuc; [2]
  EC50: 91 nM
[1]; [3]
  IC50: 73.8 nM

## Cc1ccc(-c2ccc3c(=O)n(-c4cncc5ccccc45)c(=O)[nH]c3c2)c(Cl)c1 [Example 192]
SARS-CoV-2-NLuc; [2]
  EC50: 3890 nM
[1]; [3]
  IC50: > 50000 nM

## O=C1NCc2c1cccc2-c1cccc(Cl)c1-c1ccc2c(=O)n(-c3cncc4ccccc34)c(=O)[nH]c2c1 [Example 193]
SARS-CoV-2-NLuc; [2]
  EC50: 65.6 nM
[1]; [3]
  IC50: 7.69 nM

## O=C1NCCc2c1cccc2-c1cccc(Cl)c1-c1ccc2c(=O)n(-c3cncc4ccccc34)c(=O)[nH]c2c1 [Example 194]
SARS-CoV-2-NLuc; [2]
  EC50: 20.6 nM
[1]; [3]
  IC50: < 2.54 nM

## CN1C(=O)COc2cc(-c3cccc(Cl)c3-c3ccc4c(=O)n(-c5cncc6ccccc56)c(=O)[nH]c4c3)cnc21 [Example 195]
SARS-CoV-2-NLuc; [2]
  EC50: 9.06 nM
[1]; [3]
  IC50: 8.82 nM

## CN1C(=O)COc2ccc(-c3cccc(Cl)c3-c3ccc4c(=O)n(-c5cncc6ccccc56)c(=O)[nH]c4c3)cc21 [Example 196]
SARS-CoV-2-NLuc; [2]
  EC50: 15.6 nM
[1]; [3]
  IC50: 17.4 nM

## CN1C(=O)COc2cc(-c3cccc(Cl)c3-c3ccc4c(=O)n(-c5cncc6ccccc56)c(=O)[nH]c4c3)ccc21 [Example 197]
SARS-CoV-2-NLuc; [2]
  EC50: 8.58 nM
[1]; [3]
  IC50: 13.9 nM

## Cc1cncc(-c2cccc(Cl)c2-c2ccc3c(=O)n(-c4cncc5ccccc45)c(=O)[nH]c3c2)c1 [Example 198]
SARS-CoV-2-NLuc; [2]
  EC50: 8.47 nM
[1]; [3]
  IC50: 8.77 nM

## COc1cncc(-c2cccc(Cl)c2-c2ccc3c(=O)n(-c4cncc5ccccc45)c(=O)[nH]c3c2)c1 [Example 199]
SARS-CoV-2-NLuc; [2]
  EC50: 25.4 nM
[1]; [3]
  IC50: 19.3 nM

## CCCn1cc(-c2cccc(Cl)c2-c2ccc3c(=O)n(-c4cncc5ccccc45)c(=O)[nH]c3c2)c(C(F)(F)F)n1 [Example 200]
SARS-CoV-2-NLuc; [2]
  EC50: 36 nM
[1]; [3]
  IC50: 112 nM

## CC(C)Cn1cc(-c2cccc(Cl)c2-c2ccc3c(=O)n(-c4cncc5ccccc45)c(=O)[nH]c3c2)c(C(F)(F)F)n1 [Example 201]
SARS-CoV-2-NLuc; [2]
  EC50: 59 nM
[1]; [3]
  IC50: 110 nM

## COc1cc(-c2cc3[nH]c(=O)n(-c4cncc5ccccc45)c(=O)c3cc2F)c(C#N)cc1F [Example 202, 5-fluoro-2-[6-fluoro-3-(4-isoquinolyl)-2,4-dioxo-1H-quinazolin-7-yl]-4-methoxy-benzonitrile]
SARS-CoV-2-NLuc; [2]
  EC50: 18.4 nM
[1]; [3]
  IC50: 13.6 nM

## CS(=O)(=O)c1cncc(-c2cccc(Cl)c2-c2ccc3c(=O)n(-c4cncc5ccccc45)c(=O)[nH]c3c2)c1 [Example 203]
SARS-CoV-2-NLuc; [2]
  EC50: 26.9 nM
[1]; [3]
  IC50: 11.1 nM

## CS(=O)(=O)c1ccc(-c2cccc(Cl)c2-c2ccc3c(=O)n(-c4cncc5ccccc45)c(=O)[nH]c3c2)cn1 [Example 204]
SARS-CoV-2-NLuc; [2]
  EC50: 49 nM
[1]; [3]
  IC50: 11.7 nM

Reference: patent US20240116946A1 (Gilead Sciences, Inc., priority 2022, published 2024)
